Reference: patent US7276527B2, “5-pyridyl-1,3-azole compounds, process for producing the same and use thereof” (Takeda Pharmaceutical Company Limited, priority 1999, dated 2007)

| Compound | melting point [°C] |
| --- | --- |
| Cc1cccc(-c2nc(-c3ccc(F)cc3)sc2-c2ccnc(NCCc3ccccc3)c2)c1 [Example Compound 19-12, N-[4-[2-(4-fluorophenyl)-4-(3-methylphenyl)-1,3-thiazol-5-yl]-2-pyridyl]-N-(2-phenylethyl)amine] | 97 to 98 |
| Cc1cccc(-c2nc(-c3ccccc3Cl)sc2-c2ccnc(NCc3ccccc3)c2)c1 [Example Compound 19-14, N-benzyl-N-[4-[2-(2-chlorophenyl)-4-(3-methylphenyl)-1,3-thiazol-5-yl]-2-pyridyl]amine] | 84 to 86 |
| Cc1cccc(-c2nc(-c3ccccc3Cl)sc2-c2ccnc(NC(=O)c3ccccc3)c2)c1 [Example Compound 16-13, N-(4-[2-(2-chlorophenyl)-4-(3-methylphenyl)-1,3-thiazol-5-yl]-2-pyridyl]benzamide] | 138 to 140 |
| CCCCc1nc(-c2cccc(C)c2)c(-c2ccnc(NC(=O)Cc3ccccc3)c2)s1 [Example Compound 15-4, N-[4-[2-butyl-4-(3-methylphenyl)-1,3-thiazol-5-yl]-2-pyridyl]phenylacetamide] | 92 to 93 |
| Cc1cccc(-c2nc(-c3ccc(F)cc3)sc2-c2ccnc(NC(=O)c3ccccc3)c2)c1 [Example Compound 16-11, N-[4-[2-(4-fluorophenyl)-4-(3-methylphenyl)-1,3-thiazol-5-yl]-2-pyridyl]benzamide] | 126 to 128 |
| CSc1ccc(-c2nc(-c3cccc(C)c3)c(-c3ccnc(NC(=O)c4ccccc4)c3)s2)cc1 [Example Compound 16-15, N-[4-[4-(3-methylphenyl)-2-(4-methylthiophenyl)-1,3-thiazol-5-yl]-2-pyridyl]benzamide] | 180 to 182 |
| CSc1ccc(-c2nc(-c3cccc(C)c3)c(-c3ccnc(NC(=O)Cc4ccccc4)c3)s2)cc1 [Example Compound 15-6, N-[4-[4-(3-methylphenyl)-2-(4-methylthiophenyl)-1,3-thiazol-5-yl]-2-pyridyl]phenylacetamide] | 205 to 206 |
| Cc1cccc(-c2nc(-c3ccccc3Cl)sc2-c2ccnc(NC(=O)CCc3ccccc3)c2)c1 [Example Compound 16-14, N-[4-[2-(2-chlorophenyl)-4-(3-methylphenyl)-1,3-thiazol-5-yl]-2-pyridyl]-3-phenylpropionamide] | 156 to 158 |
| CCc1nc(-c2cccc(C)c2)c(-c2ccnc(NC(=O)CCCCc3ccccc3)c2)s1 [Example Compound 16-6, N-[4-[2-ethyl-4-(3-methylphenyl)-1,3-thiazol-5-yl]-2-pyridyl]-5-phenylvaleramide] | 86 to 87 |
| CSc1ccc(-c2nc(-c3cccc(C)c3)c(-c3ccnc(NC(=O)CCc4ccccc4)c3)s2)cc1 [Example Compound 16-16, N-[4-[4-(3-methylphenyl)-2-(4-methylthiophenyl)-1,3-thiazol-5-yl]-2-pyridyl]-3-phenylpropionamide] | 174 to 175 |
| Cc1cccc(-c2nc(-c3ccc(F)cc3)sc2-c2ccnc(NCCCc3ccccc3)c2)c1 [Example Compound 19-13, N-[4-[2-(4-fluorophenyl)-4-(3-methylphenyl)-1,3-thiazol-5-yl]-2-pyridyl]-N-(3-phenylpropyl)amine] | 110 to 112 |
| CCc1nc(-c2cccc(C)c2)c(-c2ccnc(NC(=O)CCc3ccc(F)cc3)c2)s1 [Example Compound 16-4, N-[4-[2-ethyl-4-(3-methylphenyl)-1,3-thiazol-5-yl]-2-pyridyl]-3-(4-fluorophenyl)propionamide] | 116 to 117 |
| CSc1ccc(-c2nc(-c3cccc(C)c3)c(-c3ccnc(NCc4ccccc4)c3)s2)cc1 [Example Compound 19-17, N-benzyl-N-[4-[4-(3-methylphenyl)-2-(4-methylthiophenyl)-1,3-thiazol-5-yl]-2-pyridyl]amine] | 134 to 136 |
| CSc1ccc(-c2nc(-c3cccc(C)c3)c(-c3ccnc(NCCc4ccccc4)c3)s2)cc1 [Example Compound 19-18, N-[4-[4-(3-methylphenyl)-2-(4-methylthiophenyl)-1,3-thiazol-5-yl]-2-pyridyl]-N-(2-phenylethyl)amine] | 137 to 139 |
| COc1ccc(-c2nc(C)sc2-c2ccnc(NCc3ccccc3)c2)cc1 [Example Compound 19-1, N-benzyl-N-[4-[4-(4-methoxyphenyl)-2-methyl-1,3-thiazol-5-yl]-2-pyridyl]amine] | 132 to 133 |
| Cc1cccc(-c2nc(-c3ccc(F)cc3)sc2-c2ccnc(NC(=O)CCc3ccccc3)c2)c1 [Example Compound 16-12, N-[4-[2-(4-fluorophenyl)-4-(3-methylphenyl)-1,3-thiazol-5-yl]-2-pyridyl]-3-phenylpropionamide] | 169 to 171 |
| Cc1cccc(-c2nc(-c3ccc(F)cc3)sc2-c2ccnc(NCc3ccccc3)c2)c1 [Example Compound 19-11, N-benzyl-N-[4-[2-(4-fluorophenyl)-4-(3-methylphenyl)-1,3-thiazol-5-yl]-2-pyridyl]amine] | 143 to 146 |
| CCc1nc(-c2cccc(C)c2)c(-c2ccnc(NC(=O)CCCc3ccccc3)c2)s1 [Example Compound 16-5, N-[4-[2-ethyl-4-(3-methylphenyl)-1,3-thiazol-5-yl]-2-pyridyl]-4-phenylbutyramide] | 92 to 93 |
| Cc1cccc(-c2nc(-c3ccccc3Cl)sc2-c2ccnc(NCCc3ccccc3)c2)c1 [Example Compound 19-15, N-[4-[2-(2-chlorophenyl)-4-(3-methylphenyl)-1,3-thiazol-5-yl]-2-pyridyl]-N-(2-phenylethyl)amine] | 113 to 114 |

Results, then the compound that gave them:

| melting point [°C] | Compound |
| --- | --- |
| 165 to 166 | Cc1cccc(-c2nc(-c3ccc(S(C)(=O)=O)cc3)sc2-c2ccnc(N(C)Cc3ccccc3)c2)c1 [Example Compound 25-3, N-benzyl-N-methyl-N-[4-[4-(3-methylphenyl)-2-(4-methylsulfonylphenyl)-1,3-thiazol-5-yl]-2-pyridyl]amine] |
| 144 to 145 | CSc1ccc(-c2nc(-c3cccc(C)c3)c(-c3ccnc(NCc4ccc5ccccc5c4)c3)s2)cc1 [Example Compound 19-20, N-[4-[4-(3-methylphenyl)-2-(4-methylthiophenyl)-1,3-thiazol-5-yl]-2-pyridyl]-N-(2-naphthylmethyl)amine] |
| 116 to 117 | Cc1cccc(-c2nc(-c3ccc(S(C)(=O)=O)cc3)sc2-c2ccnc(N(C)CCc3ccccc3)c2)c1 [Example Compound 25-4, N-methyl-N-[4-[4-(3-methylphenyl)-2-(4-methylsulfonylphenyl)-1,3-thiazol-5-yl]-2-pyridyl]-N-(2-phenylethyl)amine] |
| 152 to 154 | COc1cccc(CNc2cc(-c3sc(N)nc3-c3cccc(C)c3)ccn2)c1 [Example Compound 23-2, N-[4-[2-amino-4-(3-methylphenyl)-1,3-thiazol-5-yl]-2-pyridyl]-N-(3-methoxybenzyl)amine] |
| 183 to 184 | COc1ccc(CNc2cc(-c3sc(N)nc3-c3cccc(C)c3)ccn2)cc1 [Example Compound 23-1, N-[4-[2-amino-4-(3-methylphenyl)-1,3-thiazol-5-yl]-2-pyridyl]-N-(4-methoxybenzyl)amine] |
| 182 to 183 | Cc1cccc(-c2nc(N)sc2-c2ccnc(NCc3ccc(Cl)cc3)c2)c1 [Example Compound 23-4, N-[4-[2-amino-4-(3-methylphenyl)-1,3-thiazol-5-yl]-2-pyridyl]-N-(4-chlorobenzyl)amine] |
| 199 to 201 | Cc1cccc(-c2nc(-c3ccc(S(C)(=O)=O)cc3)sc2-c2ccnc(NC(=O)c3cccs3)c2)c1 [Example Compound 21-3, N-[4-[4-(3-methylphenyl)-2-(4-methylsulfonylphenyl)-1,3-thiazol-5-yl]-2-pyridyl]-2-thiophenecarboxamide] |
| 94 to 98 | Cc1cccc(-c2nc(N)sc2-c2ccnc(N[C@H](C)c3ccccc3)c2)c1 [Example Compound 23-6, (R)-N-[4-[2-amino-4-(3-methylphenyl)-1,3-thiazol-5-yl]-2-pyridyl]-N-(1-phenylethyl)amine] |
| 231 to 233 | Cc1cccc(-c2nc(-c3ccc(S(C)(=O)=O)cc3)sc2-c2ccnc(NC(=O)c3ccc4ccccc4c3)c2)c1 [Example Compound 21-4, N-[4-[4-(3-methylphenyl)-2-(4-methylsulfonylphenyl)-1,3-thiazol-5-yl]-2-pyridyl]-2-naphthamide] |
| 236 to 237 | Cc1cccc(-c2nc(-c3ccc(S(C)(=O)=O)cc3)sc2-c2ccnc(NC(=O)CCc3ccccc3)c2)c1 [Example Compound 21-2, N-[4-[4-(3-methylphenyl)-2-(4-methylsulfonylphenyl)-1,3-thiazol-5-yl]-2-pyridyl]-3-phenylpropionamide] |
| 158 to 159 | COc1ccccc1CNc1cc(-c2sc(N)nc2-c2cccc(C)c2)ccn1 [Example Compound 23-3, N-[4-[2-amino-4-(3-methylphenyl)-1,3-thiazol-5-yl]-2-pyridyl]-N-(2-methoxybenzyl)amine] |
| 167 to 168 | Cc1cccc(-c2nc(-c3ccc(S(C)(=O)=O)cc3)sc2-c2ccnc(NCc3ccc4ccccc4c3)c2)c1 [Example Compound 21-7, N-[4-[4-(3-methylphenyl)-2-(4-methylsulfonylphenyl)-1,3-thiazol-5-yl]-2-pyridyl]-N-(2-naphthylmethyl)amine] |
| 138 to 140 | Cc1cccc(-c2nc(N)sc2-c2ccnc(N(C)Cc3ccccc3)c2)c1 [Example Compound 23-8, N-[4-[2-amino-4-(3-methylphenyl)-1,3-thiazol-5-yl]-2-pyridyl]-N-benzyl-N-methylamine] |
| 217 to 218 | COc1cccc(-c2nc(N)sc2-c2ccnc(NCc3ccccc3)c2)c1 [Example Compound 24, N-[4-[2-amino-4-(3-methoxyphenyl)-1,3-thiazol-5-yl]-2-pyridyl]-N-benzylamine] |
| 180 to 181 | Cc1cccc(-c2nc(N)sc2-c2ccnc(NCc3cccc(Cl)c3)c2)c1 [Example Compound 23-5, N-[4-[2-amino-4-(3-methylphenyl)-1,3-thiazol-5-yl]-2-pyridyl]-N-(3-chlorobenzyl)amine] |
